Laboratory results as given in ChEMBL document CHEMBL5537125, “Discovery of C-3 isoxazole substituted thiochromone S,S-dioxide derivatives as potent and selective inhibitors for monoamine oxidase B (MAO-B)” (Eur J Med Chem, 2024).
Active and inactive are the calls of the source. No cut-off for these calls is given here.

Columns and labels:
[1] = Solubility of compound in DMSO; assay type: physicochemical
[2] = Solubility of compound in phosphate buffer; assay type: physicochemical
[3] = biological target: T1, Amine oxidase [flavin-containing] B (Homo sapiens, UniProt P27338); assay: Inhibition of human recombinant MAO-B using tyramine as substrate incubated for 20 mins by fluorometric assay
T1 sequence (P27338 whole entry): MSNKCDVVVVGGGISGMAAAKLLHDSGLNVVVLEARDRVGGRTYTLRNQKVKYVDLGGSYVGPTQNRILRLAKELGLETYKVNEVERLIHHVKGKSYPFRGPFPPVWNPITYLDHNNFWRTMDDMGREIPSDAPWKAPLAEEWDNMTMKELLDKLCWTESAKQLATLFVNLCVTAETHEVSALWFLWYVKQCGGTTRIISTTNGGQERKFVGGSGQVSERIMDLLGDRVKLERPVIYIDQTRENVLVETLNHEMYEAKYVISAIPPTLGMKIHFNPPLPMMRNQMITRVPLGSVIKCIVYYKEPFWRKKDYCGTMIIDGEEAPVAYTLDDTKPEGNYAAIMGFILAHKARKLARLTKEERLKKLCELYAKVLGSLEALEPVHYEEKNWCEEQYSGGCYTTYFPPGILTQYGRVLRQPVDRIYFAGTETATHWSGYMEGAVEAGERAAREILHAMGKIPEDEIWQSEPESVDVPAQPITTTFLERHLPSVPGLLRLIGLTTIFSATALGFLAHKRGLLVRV

[4] = n-Octanol/water partition coefficient, logP of the compound at pH 7.4 by HPLC analysis; assay type: physicochemical
[5] = biological target: T2, Amine oxidase [flavin-containing] A (Homo sapiens, UniProt P21397); assay: Inhibition of human recombinant MAO-A using tyramine as substrate at 10 uM incubated for 20 mins by fluorometric assay relative to control
T2 sequence (P21397 whole entry): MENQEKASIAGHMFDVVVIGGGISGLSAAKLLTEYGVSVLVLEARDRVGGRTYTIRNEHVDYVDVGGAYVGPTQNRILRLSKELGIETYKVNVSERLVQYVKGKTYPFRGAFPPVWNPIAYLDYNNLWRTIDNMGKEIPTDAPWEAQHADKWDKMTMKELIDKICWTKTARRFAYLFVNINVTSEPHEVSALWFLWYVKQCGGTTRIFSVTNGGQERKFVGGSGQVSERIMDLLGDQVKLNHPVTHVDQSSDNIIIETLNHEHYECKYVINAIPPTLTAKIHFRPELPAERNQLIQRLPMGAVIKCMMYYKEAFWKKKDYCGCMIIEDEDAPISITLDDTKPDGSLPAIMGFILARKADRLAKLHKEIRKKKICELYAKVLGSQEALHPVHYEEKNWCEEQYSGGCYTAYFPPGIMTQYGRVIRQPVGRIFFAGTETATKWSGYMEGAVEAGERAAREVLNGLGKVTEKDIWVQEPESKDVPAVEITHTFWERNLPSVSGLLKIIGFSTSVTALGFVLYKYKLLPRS

MCF7 = assay: Antiproliferative activity against human MCF7 cells assessed as reduction in cell viability incubated for 24 hrs by MTT assay; assay type: functional, cell-based; conditions: MCF7, 24 h
HCT-116 = assay: Antiproliferative activity against human HCT-116 cells assessed as reduction in cell viability incubated for 24 hrs by MTT assay; assay type: functional, cell-based; conditions: HCT-116, 24 h
HepG2 = assay: Antiproliferative activity against human HepG2 cells assessed as reduction in cell viability incubated for 24 hrs by MTT assay; assay type: functional, cell-based; conditions: HepG2, 24 h
MGC-803 [6] = assay: Antiproliferative activity against human MGC-803 cells assessed as reduction in cell viability incubated for 24 hrs by MTT assay; assay type: functional, cell-based; conditions: MGC-803, 24 h
SH-SY5Y [7] = assay: Induction of ROS production in human SH-SY5Y cells assessed as increase in oxidative damage at 2 to 4 uM incubated for 24 hrs by DCFH-DA staining based fluorescence microscopic analysis; assay type: functional, cell-based; conditions: dose 2-4 µM
VSMC [8] = assay: Cytotoxicity against human VSMC cells assessed as reduction in cell viability at 0.5 uM incubated for 24 hrs by MTT assay relative to control; assay type: toxicity, cell-based
VSMC [9] = assay: Cytotoxicity against differentiated human VSMC cells assessed as reduction in cell viability at 0.5 to 4 uM incubated for 24 hrs by MTT assay; assay type: toxicity, cell-based; conditions: dose 0.5-4 µM
Homo sapiens = species: Homo sapiens; assay: Selectivity index, ratio of IC50 for human recombinant MAO-A to IC50 for human recombinant MAO-B
[10] = biological target: T1, Amine oxidase [flavin-containing] B; assay: Inhibition of human MAO-B
[11] = Selectivity index, ratio of IC50 for MAO-A (unknown origin) to IC50 for human recombinant MAO-B
[12] = biological target: T2, Amine oxidase [flavin-containing] A; assay: Inhibition of human recombinant MAO-A using tyramine as substrate incubated for 20 mins by fluorometric assay
SH-SY5Y [13] = assay: Cytotoxicity against differentiated human SH-SY5Y cells assessed as reduction in cell viability by measuring MTT reduction at 4 uM incubated for 24 hrs by MTT assay relative to control; assay type: toxicity, cell-based
[14] = Cytotoxicity against differentiated human SH-SY5Y cells assessed as cell proliferation at 0.5 uM incubated for 24 hrs by MTT assay relative to control; assay type: toxicity, cell-based; conditions: read-out: Activity
MGC-803 [15] = assay: Antiproliferative activity against human MGC-803 cells assessed as reduction in cell viability at 0.5 to 128 uM incubated for 24 hrs by MTT assay; assay type: functional, cell-based; conditions: dose 0.5-128 µM
[16] = Cytotoxicity against differentiated human SH-SY5Y cells assessed as cell proliferation at 4 uM incubated for 24 hrs by MTT assay relative to control; assay type: toxicity, cell-based; conditions: read-out: Activity

COc1ccc(-c2cc(-c3csc4ccccc4c3=O)on2)cc1
solubility [1]: Insoluble
solubility [2]: Insoluble

O=C1C(c2cc(-c3ccccc3)no2)=CS(=O)(=O)c2ccccc21
IC50 [3]: 896 nM
logD [4]: 3.26

COc1cccc(-c2cc(C3=CS(=O)(=O)c4ccccc4C3=O)on2)c1
IC50 [3]: 5.1 nM
logD [4]: 2.39
inhibition at 10 µM [5]: 1%
IC50 (MCF7): 4210 nM
IC50 (HCT-116): 47000 nM
IC50 (HepG2): 43300 nM
IC50 (MGC-803 [6]): 43000 nM
Activity (SH-SY5Y [7]): inactive
Activity (VSMC [8]): 111%
Activity (VSMC [9]): Non-Toxic

Cc1ccc(C2=NOC(c3ccc(Cl)c(Cl)c3)C2)cc1 (stereo not given)
Ratio IC50 (Homo sapiens): > 8350

O=C1C(c2cc(-c3ccc(C(F)(F)F)cc3)no2)=CS(=O)(=O)c2ccccc21
IC50 [3]: 31.8 nM
logD [4]: 2.37
inhibition at 10 µM [5]: 2.6%

CC(=O)c1ccc(OCc2ccccc2)cc1O
IC50 [10]: 7 nM
Ratio IC50 [11]: 1190

O=c1c(-c2cc(-c3ccc(F)cc3)no2)csc2ccccc12
solubility [1]: Insoluble
solubility [2]: Insoluble

O=C1C(c2cc(-c3ccc(F)cc3)no2)=CS(=O)(=O)c2ccccc21
IC50 [3]: 149 nM
logD [4]: 2.43

Cc1ccccc1-c1cc(-c2csc3ccccc3c2=O)on1
IC50 [3]: 109 nM
logD [4]: 3.99

COc1ccc(-c2cc(C3=CS(=O)(=O)c4ccccc4C3=O)on2)cc1
IC50 [3]: 3.4 nM
IC50 [12]: 64400 nM
logD [4]: 2.62
IC50 (MCF7): 6020 nM
IC50 (HCT-116): 78100 nM
IC50 (HepG2): 63100 nM
Activity (SH-SY5Y [13]): < 90%
viability at 24 h, 0.5 µM [14]: 105%
Activity (VSMC [9]): Non-Toxic
Activity (MGC-803 [15]): inactive
viability at 24 h, 4 µM [16]: 120%

COc1cccc(-c2cc(-c3csc4ccccc4c3=O)on2)c1
solubility [1]: Insoluble
solubility [2]: Insoluble

O=C1C(c2cc(-c3cccc(Cl)c3)no2)=CS(=O)(=O)c2ccccc21
IC50 [3]: 22.6 nM
logD [4]: 4.17

Cc1ccccc1-c1cc(C2=CS(=O)(=O)c3ccccc3C2=O)on1
IC50 [3]: 137 nM
logD [4]: 2.69

COc1ccc(-c2cc(-c3csc4ccccc4c3=O)[nH]n2)cc1
IC50 [3]: 18.5 nM
logD [4]: 3.43
